# Where no end group is shown, it is not given here.
# Assays:
# [1] = tested on: B16F10 melanoma tumor cells; assay: In vivo inhibition of B16F10 melanoma tumor development; design: species or system C57BL/6NCr female mice
# Procedure: C57BL/6NCr female mice (20 g), approximately 50 days old, were shaved in the abdominal area, ear notched for identification, and, two or three days prior to receiving tumor cells, pre-injected subcutaneously with the immunostimulating drugs described.
# On “day zero,” B16F10 melanoma tumor cells, cultured in αMEM medium with 10% FBS, were injected intradermally (10^5 cells in 0.1 ml) in the center of the mouse abdomen using a 26 gauge ½ inch needle. Four to five hours later, the drug treatment (as specified) was injected intradermally in a different area of the abdomen than the site of the tumor injection.
# Intradermal treatments using the immunostimulatory drug (as specified) continued either every other day or on a Monday-Wednesday-Friday injection schedule. Control tumors (in mice not receiving an immunostimulatory drug) usually formed within seven to ten days. Tumors were examined by visual inspection, measured (length by width), and the area of any resulting lesion was recorded as mm^2 every five days.
# Mice were euthanized by CO2 inhalation if the tumor exceeded 500 mm^2. Some experiments were terminated early if all mice in the control group were dead, but the experiments were not less than 20 days. The normal duration of an experiment was about 30 days.
# Pyrularia thionin, both alone and in combination with IL-2, was effective in preventing or retarding the development of melanoma tumors when C57BL/6NCr mice were pretreated before injection with B16F10 cells, which produce melanoma tumors.
# IL-12 = assay: ELISA of IL-12 production by splenocytes; assay type: cell-based, Balb C murine; settings: 48 hours, PT 0.05 μg/ml
# Procedure: Identical plates are set up for an immunoassay and a mitogen assay. Mouse splenocytes and immuno-stimulating drugs are plated in duplicate wells (immunoassay) and triplicate wells (mitogen assay) in 96-well microplates as described above. The incubation at 37° C. in a humidified 5% CO2 incubator may vary from three to five days. At the end of the activation/proliferation period, the two identical plates are harvested as an immunoassay for cytokines or harvested as a mitogen assay (to which ^3H-thymidine has been added approximately 16-18 hours earlier).
# Immunoassay kits used to detect IL-1β, IL-2, and IL-12 were the murine Quantikine M™ kits produced by R&D Systems (Minneapolis, Minn.). The general procedure is the same for all interleukin cytokines, and is described in the instructions provided by the manufacturer. All reagents are used at room temperature, and are prepared according to kit instructions.
# The immunoassay plate is centrifuged at 200×g to pellet all cells. A 50 μl aliquot of Assay Diluent is first added to the center of each special enzyme-coated well supplied with the kit. Next, 50 μl of standard, control or test sample of supernatant from the immunoassay incubation plate is added to each well. This is incubated at room temperatures for two hours.
# Liquid is aspirated from the wells, and the wells are washed five times with surfactant diluted 1:25 with distilled water. A 100 μL aliquot of Conjugate is added to each well and incubated two hours at room temperature. […]
# One hundred microliters of Substrate Solution are added to each well and incubated 30 minutes at room temperature. […] The plate is read for absorbence at 450 nm and at 540 nm for background readings.
# To calculate the results, the duplicate readings for each pair of standard, control, and test samples are averaged and the average background optical density readings are subtracted. […] Picograms of cytokine are determined from the standard curve. Mitogenic activity determined from the cpm of ^3H-thymidine is compared to the concentrations of cytokine in the experimental samples in the corresponding immunoassay. […]
# Balb C splenocytes = assay: Mitogen assay (^3H-thymidine uptake), murine splenocytes; assay type: cell-based; settings: for Cpm, standard mitogen assay: 0.1 μg/ml PT
substance,measurement,setting,value
Pyrularia thionin (KSCCRNTWARNCYNVCRLPGTISREICAKKCDCKIISGTTCPSDYPK; ends and bridges not checked; also: labeled with 125I) [PT],development of tumors compared to mice injected with saline,[1]; 3 μg PT (with or without 100 units murine IL-2) sc five and two days prior to B16 cells and three times weekly thereafter,slowed the development of tumors
same,Average Tumor Size,"[1]; B16 melanoma in C57 mice, sc 3 μg PT, 100 units IL-2, 20-31 days",191 mm^2
same,Number of Deaths,"[1]; B16 melanoma in C57 mice, sc 3 μg PT, 100 units IL-2, total mice 12 (IL-2), 15 (PT), 24 (PT + IL-2)",1
same,Mice w/o Tumors,"[1]; B16 melanoma in C57 mice, sc 3 μg PT, 100 units IL-2, total mice 12 (IL-2), 15 (PT), 24 (PT + IL-2), 20-31 days",1
same,remission of established tumors,"[1]; B16 melanoma, Table 2 and FIG. 2",did not cause remission of established tumors
same,PT dose giving the best response,"[1]; PT injected along with IL-2, per mouse",3 µg
same,PT dose with little protection,"[1]; per mouse, with IL-2",> 5 µg
same,IL-12,"IL-12; Experiment 1, KLH 10 μg/ml, control 1.5",5.6 ± 0.3 pg/mL
same,IL-12,"IL-12; Experiment 2, control 21",24 ± 0.3 pg/mL
same,stimulation of the mitogen reaction,Balb C splenocytes; 0.1 μg/ml (PT 20 nM; βME 40 nM),modest
same,"Cpm, standard mitogen assay",Balb C splenocytes; GM-CSF (5 ng/ml),822 Cpm
same,"Cpm, standard mitogen assay",Balb C splenocytes; no GM-CSF,243 Cpm
